Assay results taken from the NIST ThermoML archive (doi:10.1021/je900888e).

Test: mn = molality of the nth substance listed, in mol/kg
Conditions: 101 kPa, Liquid; for speed of sound: Pulse-echo method

CCCO [propan-1-ol] + CCCC[P+](CCCC)(CCCC)CCCC.[Br-]
m2 = 0
Conditions	mass density [kg/m3]
288.15 K	807.448
293.15 K	803.46
298.15 K	799.452
303.15 K	795.414
308.15 K	791.344
313.15 K	787.227
323.15 K	778.86

CCCC[P+](CCCC)(CCCC)CCCC.[Br-] [tetrabutylphosphonium bromide] + CCO
Conditions	mass density, 288.15 K [kg/m3]	mass density, 293.15 K [kg/m3]	mass density, 298.15 K [kg/m3]	mass density, 303.15 K [kg/m3]	mass density, 308.15 K [kg/m3]	mass density, 313.15 K [kg/m3]	mass density, 323.15 K [kg/m3]	speed of sound, 298.15 K [m/s]
m1 = 0.01059	794.469	790.202	785.915	781.605	777.266	772.883	763.983	1143.4
m1 = 0.01529	794.835	790.569	786.285	781.975	777.642	773.262	764.367	–
m1 = 0.02012	795.211	790.945	786.664	782.36	778.029	773.654	764.765	1144.2
m1 = 0.02498	795.579	791.314	787.039	782.735	778.405	774.033	765.15	–
m1 = 0.03006	795.97	791.71	787.435	783.133	778.811	774.44	765.563	1144.9
m1 = 0.03503	796.342	792.084	787.812	783.514	779.185	774.821	765.954	–
m1 = 0.04151	796.84	792.586	788.317	784.017	779.692	775.339	766.473	–
m1 = 0.04161	–	–	–	–	–	–	–	1145.8
m1 = 0.05762	798.064	793.819	789.557	785.266	780.958	776.605	767.762	1147
m1 = 0.0739	799.301	795.066	790.805	786.532	782.224	777.879	769.054	1148.3
m1 = 0.09578	800.947	796.718	792.466	788.201	783.906	779.575	770.773	1150
m1 = 0.1153	802.415	798.195	793.96	789.696	785.405	781.083	772.302	1151.6
m1 = 0.1491	805.003	800.793	796.569	792.326	788.054	783.746	775	1154
m1 = 0.1902	808.127	803.94	799.735	795.51	791.254	786.963	778.257	1157.1
m1 = 0.2304	811.194	807.016	802.825	798.61	794.369	790.1	781.434	1160.1
m1 = 0.2693	814.212	810.05	805.871	801.675	797.452	793.195	784.564	1163.2
m1 = 0.3148	817.67	813.522	809.364	805.185	800.979	796.743	788.154	1166.6
m1 = 0.3532	820.707	816.572	812.423	808.255	804.069	799.851	791.3	1169.7
